Laboratory results taken from patent US20260070945A1, “MACROCYCLIC IMMUNOMODULATORS” (Bristol-Myers Squibb Company, priority 2022, published 2026).
Where a SMILES comes first, the peptide text is derived from it. Bridges are numbered along the chain shown (N, C = ends). [ ]: non-standard residue; d: D form. The star is where a group is joined. ξ: configuration not given here. Phe(4-CONH2) = NC(=O)c1ccc(C[C@H](N)C(=O)O)cc1; Phe(4-COOH) = N[C@@H](Cc1ccc(C(=O)O)cc1)C(=O)O; Bip = N[C@@H](Cc1ccc(-c2ccccc2)cc1)C(=O)O; Phe(4-CN) = N#Cc1ccc(C[C@H](N)C(=O)O)cc1; Phe(3-F) = N[C@@H](Cc1cccc(F)c1)C(=O)O; Phe(3-Me) = Cc1cccc(C[C@H](N)C(=O)O)c1; Val(3-OH) = CC(C)(O)[C@H](N)C(=O)O; 4Pal = N[C@@H](Cc1ccncc1)C(=O)O; Cha = N[C@@H](CC1CCCCC1)C(=O)O; Cit = NC(=O)NCCC[C@H](N)C(=O)O; Ile(3ξ) = CCC(C)[C@H](N)C(=O)O; Thr(3ξ) = CC(O)[C@H](N)C(=O)O; Carboxymethyl = O=C(O)C*; NMeA = CN[C@@H](C)C(=O)O; Aun = NCCCCCCCCCCC(=O)O; Dab = NCC[C@H](N)C(=O)O; AEEA = NCCOCCOCC(=O)O

Target: T1, PD-1/PD-L1 interaction (PE-labeled human PD-L1-Ig binding to Jurkat cell line over-expressing human PD-1) (Homo sapiens, UniProt Q15116)
T1 construct: expressed in transfected cells; host or cells: Jurkat
Test: Jurkat-PD-1 Cell Binding High-Content Screening Assay (CBA)
Details: PE-labeled PD-L1-Ig 20 nM final, Jurkat-hPD-1 cells; read-out: Jurkat HPD1 PDL1 IC50
Procedure, shortened: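 Cells 8×10^3/well, DMEM + 10% FCS; cpd 2 h, 37 °C; PE–PD-L1-Ig 20 nM final, 1 h; PFA fix + Hoechst 33342, 3× dPBS wash; high-content imager.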

T1 sequence (Q15116 25-288): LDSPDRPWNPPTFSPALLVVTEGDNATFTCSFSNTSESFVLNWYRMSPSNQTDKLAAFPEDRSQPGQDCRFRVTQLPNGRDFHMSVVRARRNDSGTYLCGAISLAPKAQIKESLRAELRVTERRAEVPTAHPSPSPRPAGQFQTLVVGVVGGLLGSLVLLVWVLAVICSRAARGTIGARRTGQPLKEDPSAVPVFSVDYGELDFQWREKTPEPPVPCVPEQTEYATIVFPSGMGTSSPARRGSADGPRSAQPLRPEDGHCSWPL

Row | SMILES | IC50 [nM]
1 | CCC(C)[C@@H]1NC(=O)[C@H](Cc2ccc(-c3ccccc3)cc2)NC(=O)[C@H](C(C)C)NC(=O)[C@H](Cc2c[nH]c3ccccc23)NC(=O)[C@H](CC(=O)O)NC(=O)[C@H](Cc2ccc(C(=O)O)cc2)NC(=O)[C@H](Cc2ccc(OCC(=O)O)cc2)NC(=O)CSC[C@@H](C(=O)N[C@@H](CCN)C(=O)NCCOCCOCC(=O)NCCCCCCCCCCC(=O)O)NC(=O)[C@H](CCCNC(N)=O)NC(=O)[C@H](C(C)(C)O)NC(=O)[C@H](CC2CCCCC2)NC(=O)[C@H](Cc2cnc[nH]2)NC(=O)[C@@H](CC(C)C)NC(=O)[C@H](C)N(C)C1=O (stereo partly drawn) [Example 2523] ({CH2CO}-Y(Carboxymethyl)[Phe(4-COOH)]DWV[Bip][Ile(3ξ)][NMeA][dL]H[Cha][Val(3-OH)][Cit]C[Dab][AEEA][Aun]-OH; thioether N-14) | 7.1
2 | Cc1cccc(C[C@@H]2NC(=O)[C@H](CC(=O)O)NC(=O)[C@H](Cc3ccc(C#N)cc3)NC(=O)[C@H](C(C)O)NC(=O)CSC[C@@H](C(=O)N[C@@H](CCN)C(=O)NCCOCCOCC(=O)NCCOCCOCC(=O)NCCCCCCCCCCC(=O)O)NC(=O)[C@H](Cc3cnc[nH]3)NC(=O)[C@H](C(C)O)NC(=O)[C@H](CC3CCCCC3)NC(=O)[C@H](CCN)NC(=O)[C@@H](CC(C)C)NC(=O)[C@H](C)N(C)C(=O)[C@H](Cc3ccc(OCC(=O)O)cc3)NC(=O)[C@H](Cc3ccc(-c4ccccc4)cc3)NC(=O)[C@H](Cc3ccc(OCC(=O)O)cc3)NC2=O)c1 (stereo partly drawn) [Example 2525] ({CH2CO}-[Thr(3ξ)][Phe(4-CN)]D[Phe(3-Me)]Y(Carboxymethyl)[Bip]Y(Carboxymethyl)[NMeA][dL][Dab][Cha][Thr(3ξ)]HC[Dab][AEEA][AEEA][Aun]-OH; thioether N-14) | 7.9
3 | Cc1cccc(C[C@@H]2NC(=O)[C@H](CC(=O)O)NC(=O)[C@H](Cc3ccc(C#N)cc3)NC(=O)[C@H](C(C)O)NC(=O)CSC[C@@H](C(=O)N[C@@H](CCN)C(=O)NCCOCCOCC(=O)NCCOCCOCC(=O)NCCCCCCCCCCC(=O)O)NC(=O)[C@H](CCC(=O)O)NC(=O)[C@H](C(C)C)NC(=O)[C@H](CC3CCCCC3)NC(=O)[C@H](CCN)NC(=O)[C@@H](CC(C)C)NC(=O)[C@H](C)N(C)C(=O)[C@H](Cc3ccc(OCC(=O)O)cc3)NC(=O)[C@H](Cc3ccc(-c4ccccc4)cc3)NC(=O)[C@H](Cc3cccc(F)c3)NC2=O)c1 (stereo partly drawn) [Example 2526] ({CH2CO}-[Thr(3ξ)][Phe(4-CN)]D[Phe(3-Me)][Phe(3-F)][Bip]Y(Carboxymethyl)[NMeA][dL][Dab][Cha]VEC[Dab][AEEA][AEEA][Aun]-OH; thioether N-14) | 16.9
4 | Cc1cccc(C[C@@H]2NC(=O)[C@H](CC(=O)O)NC(=O)[C@H](Cc3ccc(C(=O)O)cc3)NC(=O)[C@H](C(C)O)NC(=O)CSC[C@@H](C(=O)N[C@@H](CCN)C(=O)NCCOCCOCC(=O)NCCOCCOCC(=O)NCCCCCCCCCCC(=O)O)NC(=O)[C@H](CO)NC(=O)[C@H](C(C)(C)O)NC(=O)[C@H](CC3CCCCC3)NC(=O)[C@H](CCN)NC(=O)[C@@H](CC(C)C)NC(=O)[C@H](C)N(C)C(=O)[C@H](Cc3ccc(C(=O)O)cc3)NC(=O)[C@H](Cc3ccc(-c4ccccc4)cc3)NC(=O)[C@H](Cc3ccc(C(=O)O)cc3)NC2=O)c1 (stereo partly drawn) [Example 2527] ({CH2CO}-[Thr(3ξ)][Phe(4-COOH)]D[Phe(3-Me)][Phe(4-COOH)][Bip][Phe(4-COOH)][NMeA][dL][Dab][Cha][Val(3-OH)]SC[Dab][AEEA][AEEA][Aun]-OH; thioether N-14) | 1.8
5 | Cc1cccc(C[C@@H]2NC(=O)[C@H](CC(=O)O)NC(=O)[C@H](Cc3ccc(C(=O)O)cc3)NC(=O)[C@H](C(C)O)NC(=O)CSC[C@@H](C(=O)N[C@@H](CCN)C(=O)NCCOCCOCC(=O)NCCOCCOCC(=O)NCCCCCCCCCCC(=O)O)NC(=O)[C@H](CCC(=O)O)NC(=O)[C@H](C(C)O)NC(=O)[C@H](CC3CCCCC3)NC(=O)[C@H](CCN)NC(=O)[C@@H](CC(C)C)NC(=O)[C@H](C)N(C)C(=O)[C@H](Cc3ccc(C(=O)O)cc3)NC(=O)[C@H](Cc3ccc(-c4ccccc4)cc3)NC(=O)[C@H](Cc3ccc(C(=O)O)cc3)NC2=O)c1 (stereo partly drawn) [Example 2528] ({CH2CO}-[Thr(3ξ)][Phe(4-COOH)]D[Phe(3-Me)][Phe(4-COOH)][Bip][Phe(4-COOH)][NMeA][dL][Dab][Cha][Thr(3ξ)]EC[Dab][AEEA][AEEA][Aun]-OH; thioether N-14) | 8.6
6 | CCC(C)[C@@H]1NC(=O)[C@H](Cc2ccc(-c3ccccc3)cc2)NC(=O)[C@H](C(C)C)NC(=O)[C@H](Cc2c[nH]c3ccccc23)NC(=O)[C@H](CC(=O)O)NC(=O)[C@H](Cc2ccc(C(=O)O)cc2)NC(=O)[C@H](Cc2cnc[nH]2)NC(=O)CSC[C@@H](C(=O)N[C@@H](CCN)C(=O)NCCOCCOCC(=O)NCCOCCOCC(=O)NCCCCCCCCCCC(=O)O)NC(=O)[C@H](C(C)O)NC(=O)[C@H](C(C)O)NC(=O)[C@H](CC2CCCCC2)NC(=O)[C@H](CCN)NC(=O)[C@@H](CC(C)C)NC(=O)[C@H](C)N(C)C1=O (stereo partly drawn) [Example 2529] ({CH2CO}-H[Phe(4-COOH)]DWV[Bip][Ile(3ξ)][NMeA][dL][Dab][Cha][Thr(3ξ)][Thr(3ξ)]C[Dab][AEEA][AEEA][Aun]-OH; thioether N-14) | 4.4
7 | CCC(C)[C@@H]1NC(=O)[C@H](Cc2ccc(-c3ccccc3)cc2)NC(=O)[C@H](C(C)C)NC(=O)[C@H](Cc2c[nH]c3ccccc23)NC(=O)[C@H](CC(=O)O)NC(=O)[C@H](Cc2ccc(C(=O)O)cc2)NC(=O)[C@H](Cc2cnc[nH]2)NC(=O)CSC[C@@H](C(=O)N[C@@H](CCN)C(=O)NCCOCCOCC(=O)NCCCCCCCCCCC(=O)O)NC(=O)[C@H](C(C)O)NC(=O)[C@H](C(C)(C)O)NC(=O)[C@H](CC2CCCCC2)NC(=O)[C@H](CCN)NC(=O)[C@@H](CC(C)C)NC(=O)[C@H](C)N(C)C1=O (stereo partly drawn) [Example 2530] ({CH2CO}-H[Phe(4-COOH)]DWV[Bip][Ile(3ξ)][NMeA][dL][Dab][Cha][Val(3-OH)][Thr(3ξ)]C[Dab][AEEA][Aun]-OH; thioether N-14) | 2.4
8 | CCC(C)[C@@H]1NC(=O)[C@H](Cc2ccc(-c3ccccc3)cc2)NC(=O)[C@H](C(C)C)NC(=O)[C@H](Cc2c[nH]c3ccccc23)NC(=O)[C@H](CC(=O)O)NC(=O)[C@H](Cc2ccc(C(=O)O)cc2)NC(=O)[C@H](Cc2cnc[nH]2)NC(=O)CSC[C@@H](C(=O)N[C@@H](CCN)C(=O)NCCOCCOCC(=O)NCCCCCCCCCCC(=O)O)NC(=O)[C@H](CCC(=O)O)NC(=O)[C@H](C(C)(C)O)NC(=O)[C@H](CC2CCCCC2)NC(=O)[C@H](CCN)NC(=O)[C@@H](CC(C)C)NC(=O)[C@H](C)N(C)C1=O (stereo partly drawn) [Example 2531] ({CH2CO}-H[Phe(4-COOH)]DWV[Bip][Ile(3ξ)][NMeA][dL][Dab][Cha][Val(3-OH)]EC[Dab][AEEA][Aun]-OH; thioether N-14) | 1
9 | CC(=O)NCCCC[C@@H]1NC(=O)[C@H](C(C)(C)O)NC(=O)[C@H](CC2CCCCC2)NC(=O)[C@H](CCN)NC(=O)[C@@H](CC(C)C)NC(=O)[C@H](C)N(C)C(=O)[C@H](CCC(=O)O)NC(=O)[C@H](Cc2ccc(-c3ccccc3)cc2)NC(=O)[C@H](Cc2ccc(C(N)=O)cc2)NC(=O)[C@H](Cc2cccc(C)c2)NC(=O)[C@H](CC(=O)O)NC(=O)[C@H](Cc2ccc(OCC(=O)O)cc2)NC(=O)[C@H](Cc2ccc(OCC(=O)O)cc2)NC(=O)CSC[C@@H](C(=O)N[C@@H](CCN)C(=O)NCCOCCOCC(=O)NCCCCCCCCCCC(=O)O)NC1=O [Example 2532] ({CH2CO}-Y(Carboxymethyl)Y(Carboxymethyl)D[Phe(3-Me)][Phe(4-CONH2)][Bip]E[NMeA][dL][Dab][Cha][Val(3-OH)]K(Ac)C[Dab][AEEA][Aun]-OH; thioether N-14) | 1.4
10 | CC(=O)NCCCC[C@@H]1NC(=O)[C@H](C(C)(C)O)NC(=O)[C@H](CC2CCCCC2)NC(=O)[C@H](CCN)NC(=O)[C@@H](CC(C)C)NC(=O)[C@H](C)N(C)C(=O)[C@H](CCC(=O)O)NC(=O)[C@H](Cc2ccc(-c3ccccc3)cc2)NC(=O)[C@H](Cc2ccc(C(N)=O)cc2)NC(=O)[C@H](Cc2cccc(C)c2)NC(=O)[C@H](CC(=O)O)NC(=O)[C@H](Cc2ccc(C(=O)O)cc2)NC(=O)[C@H](Cc2ccc(OCC(=O)O)cc2)NC(=O)CSC[C@@H](C(=O)N[C@@H](CCN)C(=O)NCCOCCOCC(=O)NCCOCCOCC(=O)NCCCCCCCCCCC(=O)O)NC1=O [Example 2533] ({CH2CO}-Y(Carboxymethyl)[Phe(4-COOH)]D[Phe(3-Me)][Phe(4-CONH2)][Bip]E[NMeA][dL][Dab][Cha][Val(3-OH)]K(Ac)C[Dab][AEEA][AEEA][Aun]-OH; thioether N-14) | 2.3
11 | CC(=O)NCCCC[C@@H]1NC(=O)[C@H](C(C)O)NC(=O)[C@H](CC2CCCCC2)NC(=O)[C@H](CCN)NC(=O)[C@@H](CC(C)C)NC(=O)[C@H](C)N(C)C(=O)[C@H](CCC(=O)O)NC(=O)[C@H](Cc2ccc(-c3ccccc3)cc2)NC(=O)[C@H](Cc2ccc(C(N)=O)cc2)NC(=O)[C@H](Cc2cccc(C)c2)NC(=O)[C@H](CC(=O)O)NC(=O)[C@H](Cc2ccc(C(=O)O)cc2)NC(=O)[C@H](Cc2ccc(OCC(=O)O)cc2)NC(=O)CSC[C@@H](C(=O)N[C@@H](CCN)C(=O)NCCOCCOCC(=O)NCCCCCCCCCCC(=O)O)NC1=O (stereo partly drawn) [Example 2534] ({CH2CO}-Y(Carboxymethyl)[Phe(4-COOH)]D[Phe(3-Me)][Phe(4-CONH2)][Bip]E[NMeA][dL][Dab][Cha][Thr(3ξ)]K(Ac)C[Dab][AEEA][Aun]-OH; thioether N-14) | 1.7
12 | Cc1cccc(C[C@@H]2NC(=O)[C@H](CC(=O)O)NC(=O)[C@H](Cc3ccc(C(=O)O)cc3)NC(=O)[C@H](Cc3ccncc3)NC(=O)CSC[C@@H](C(=O)N[C@@H](CCN)C(=O)NCCOCCOCC(=O)NCCOCCOCC(=O)NCCCCCCCCCCC(=O)O)NC(=O)[C@H](CCC(=O)O)NC(=O)[C@H](C(C)C)NC(=O)[C@H](CC3CCCCC3)NC(=O)[C@H](CCN)NC(=O)[C@@H](CC(C)C)NC(=O)[C@H](C)N(C)C(=O)[C@H](CCC(=O)O)NC(=O)[C@H](Cc3ccc(-c4ccccc4)cc3)NC(=O)[C@H](Cc3ccc(C(N)=O)cc3)NC2=O)c1 [Example 2536] ({CH2CO}-[4Pal][Phe(4-COOH)]D[Phe(3-Me)][Phe(4-CONH2)][Bip]E[NMeA][dL][Dab][Cha]VEC[Dab][AEEA][AEEA][Aun]-OH; thioether N-14) | 435
